# Measurements reported in PMC13223490, “New Indazole Derivatives as Potential Scaffolds for the Development of Anticancer, Antiviral, and Anti-tuberculosis Chemotherapeutic Compounds” (Current Medicinal Chemistry, 2025).
# “And” between values parts separate entries of the source, which are not always exact repeats. Identical values can stand only once.
# Experiments:
# [1] = test system: M. tuberculosis H37Rv; experiment: Bacteriostatic activity, proportion method, BACTEC MGIT 960, Middlebrook 7H9; format: cell-based, Mycobacterium tuberculosis; conditions: Mycobacterium tuberculosis, H37RV
# [2] = test system: SARS-CoV-2; experiment: microbe, parasite or virus in culture; format: cell-based
# [3] = Cytotoxic effect in MDCK cell culture (MTS); format: cell-based; conditions: dog
# Protocol: Multiple dilutions of solutions of all compounds were prepared in 24-well plates by titration into 8 wells, starting from a dilution of 1:10 to 1:1280. The resulting serial dilutions were transferred to the wells of the test plates with cells. Each point was tested in 4 parallel wells. The working medium was added to the wells of the cell control. […] Then, the culture medium was removed from the plates, and 100 μL of the medium and 20 μL of the MTS solution were added to the cell culture monolayer in each well. After incubation for 3 hours at 37°C, the results were recorded on a BIO-RAD automatic reader at a wavelength of 490 nm. Reference filter - 630 nm.
# To obtain statistically reliable results, the experiments were performed 2-3 times. The values of CC50 and IC50 were calculated using generally accepted methods for biological research, as implemented in the Microsoft Excel 5.0 and GraphPad Prism 6.01 software packages. The working model for CC50 analysis was a 4-parameter logistic curve equation (menu items “Nonlinear regression” - “Sigmoidal dose-response (variable slope)”). For IC50 analysis, a 4-parameter logistic curve equation was adopted (menu items “Nonlinear regression” - “log (inhibitor) vs. response (variable slope)”). Based on the obtained data, the selectivity index (SI) was calculated using the equation: SI = CC50/ IC50.
# [4] = test system: white outbred mice; experiment: in vivo; format: in vivo
# Text: (§1) The toxicity of the compound was studied according to published procedure in compliance with the guidelines.
# (§2) In this regard, one representative of the group, lead compound 8, was studied for acute toxicity in […] mice. White outbred mice of both sexes, weighing 25-30 g and aged 12-13 weeks, were used as biomodels. The animals were obtained from the nursery of the Federal State Unitary Enterprise «Research Institute for Hygiene, Toxicology and Occupational Pathology» of the Federal Medical and Biological Agency of Russia. The total number of animals was 20 heads. The experimental and control groups consisted of 4 animals with an equal number of males and females.
# (§3) The toxic effect of the specified substance was studied using the described procedure. The substance was administered intragastrically using an atraumatic metal probe at a rate of 0.05 mL per 10 g of body weight in a dose range from 20 mg/kg to 80 mg/kg. Control animals received the solvent (99% DMSO) in the same volume in a similar way.
# (§4) After the substance was administered, the animals were continuously observed for 4 hours, then periodically for 14 days, recording clinical manifestations of intoxication and the fact of death, after which lethal doses were calculated.
# (§5) Dead animals were autopsied as soon as possible after death, macroscopic manifestations of the effect of the test compound were noted, and internal organs were collected for subsequent histological examination as described earlier.
# (§6) Lethal doses were calculated using the probit analysis method, as described by D.J. Finney, in Microsoft Excel 2013 on the 14th day of the experiment.
# [5] = in vivo; format: in vivo, mice; conditions: both sexes, white outbred, mouse, in vivo, po; mice, single intragastric administration, day 14
# Text: as §1, §2, §3, §4, §5, §6
# [6] = test system: influenza virus A/California/7/2009 (H1N1)pdm09; experiment: microbe, parasite or virus in culture; format: cell-based, human influenza virus A
# [7] = test system: GBM5522 low-passage primary glioblastoma multiforme cells; experiment: Cytotoxicity on tumor cell cultures (resazurin, 48 h); conditions: 48 h
# Protocol: The low-passage primary glioblastoma multiforme cell culture GBM5522 was previously described [37]. Cells were cultured in DMEM (Servicebio) containing 10% fetal bovine serum (FBS) at 37°C in an atmosphere of 5% CO2. The cells were plated in 96-well plates at a density of 1x10^4 cells/well. The test substances were then added in concentrations ranging from 0.8 to 100 μM. DMSO at a concentration of 1% was used as a control, corresponding to the percentage of DMSO when the highest concentration of the drug was added. The total well volume was 150 μl. The cells were incubated for 48 hours at 37°C in a 5% CO2 atmosphere. Resazurin was added in a concentration of 10 μl of a 0.5 mg/mL solution in phosphate-buffered saline. The incubation was carried out under the same conditions for 4 hours, and then the fluorescence level was measured at an excitation wavelength of 560 nm and an emission wavelength of 590 nm using a CLARIOstar multimodal microplate reader (BMG Labtech, Germany). The data obtained for each concentration were normalized to the control, and the IC50 was calculated using the nonlinear regression method. The minimum number of repetitions for each concentration was three. The GraphPad Prism software v.9.5.1 (GraphPad Software, San Diego, USA) was used to calculate the IC50 and plot the percentage of living cells versus the concentration of the drug.
# [8] = test system: SH-SY5Y, K-562, HL-60, GBM5522 cells; experiment: Cytotoxicity screening, summary over the cancer cell panel; format: cell-based
# Protocol: (§7) The total well volume was 150 μl.
# Cytotoxicity screening of the synthesized indazole derivatives was performed on the cell line of neuroblastoma SH-SY5Y, lymphoblastic cells K-562, promyeloblastic cells HL-60, low-passage variant of highly differentiated multiform glioblastoma GBM5522 (Table 2).
# [9] = test system: K562 leukemia cells; experiment: Cytotoxicity on tumor cell cultures (resazurin, 48 h); format: cell-based; conditions: Homo sapiens, K562, 48 h
# Protocol: as §7
# [10] = test system: HL60 leukemia cells; experiment: as above; format: cell-based; conditions: Homo sapiens, HL-60; HL60, 48 h
# Protocol: as §7
# [11] = test system: SH-SY5Y neuroblastoma cells; experiment: as above; format: cell-based; conditions: Homo sapiens
# Protocol: as §7
# [12] = mice, single intragastric administration, day 14
structure (smiles),measurement,setting,value
"c1cc2cn[nH]c2cc1-c1cn[nH]c1 [Compound 8, 6-(1H-pyrazol-4-yl)-1H-indazole]",MIC,[1]; 75% inhibition of mycobacterial growth,60 µg/mL and 326 µM
same,MIC50,"[1]; 50% inhibition of mycobacterial growth, read-out: MIC 50",40 µg/mL and 217 µM
same,Δlgmax,[2],0.75
same,IC50,"[2]; Severe acute respiratory syndrome coronavirus 2, Vero C1008, Vero E6",> 6 µM
same,CC50 at 66 h,[3],330 µM
same,Number of Animals in the Group/Number of Dead,[4]; 20 mg/kg intragastric,4/0
same,Number of Animals in the Group/Number of Dead,[4]; 40 mg/kg intragastric,4/2
same,Number of Animals in the Group/Number of Dead,[4]; 50 mg/kg intragastric,4/3
same,necropsy findings,"[4]; 80 mg/kg and 50 mg/kg, dead animals","uncoagulated blood was found in the heart, pulmonary hyperemia was present, and blood was observed in the chest"
same,Number of Animals in the Group/Number of Dead,[4]; 80 mg/kg intragastric,4/4
same,pathomorphological examination,"[4]; 80 mg/kg, male mouse",focal hemorrhages in the gastric mucosa and pronounced swelling and edema of the submucosal layer
same,clinical picture of intoxication,"[4]; lethal doses, first day after administration","convulsions, dysfunction of the hind limbs, increasing hypodynamia"
same,LD10,[4]; [12],"26,2 mg/kg"
same,LD16,[4]; [12],"28,8 mg/kg"
same,LD84,[4]; [12],"55,6 mg/kg"
same,LD50,[5],40 mg/kg
same,Δlgmax,[6],2.0
same,IC50,"[6]; H1N1, MDCK",6 µM
same,maximum reduction of the infectious titer,[6]; MDCK cell culture,2.0 logTCID50
same,SI (selectivity index),"[6]; ratio of CD50 (CC50) to IC50, MDCK",55
same,IC50,[7],13.8 ± 1.1 µM
same,cytotoxicity in words,[8],significant cytotoxicity
same,IC50,"[8]; SH-SY5Y, K-562, HL-60, GBM5522, read-out: IC50 range over cancer cell lines",4 to 14 µM
same,IC50,[9],6.7 ± 0.8 µM
same,IC50,[10],9.9 ± 0.8 µM
same,IC50,[11],4.2 ± 0.9 µM
